# Data published in PMC3344384 (Chemistry & biology, 2011).
# Entries after “also recorded” stand apart in the source; their conditions may differ.
# Experiments:
# caspase-3 = target: T1, caspase-3 (Homo sapiens, UniProt P42574); test: cysteine protease selectivity, caspase-3; type: biochemical
# T1 sequence (P42574 29-175 limits assumed): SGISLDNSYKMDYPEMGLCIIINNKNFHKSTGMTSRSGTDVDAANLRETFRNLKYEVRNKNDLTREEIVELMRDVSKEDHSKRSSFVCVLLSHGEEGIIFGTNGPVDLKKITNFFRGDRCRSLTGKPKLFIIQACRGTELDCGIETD
# T1 sequence (P42574 176-277 limits assumed): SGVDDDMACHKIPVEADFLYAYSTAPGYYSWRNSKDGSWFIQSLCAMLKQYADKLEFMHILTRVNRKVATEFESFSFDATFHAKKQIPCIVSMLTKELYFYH
# USP1/UAF1 [1] = target: T2, USP1/UAF1 (Homo sapiens, UniProt O94782+Q8TAF3); test: reversibility of inhibition by rapid dilution; conditions: incubation at 10 times IC50, 100-fold rapid dilution
# T2 sequence (O94782 whole entry): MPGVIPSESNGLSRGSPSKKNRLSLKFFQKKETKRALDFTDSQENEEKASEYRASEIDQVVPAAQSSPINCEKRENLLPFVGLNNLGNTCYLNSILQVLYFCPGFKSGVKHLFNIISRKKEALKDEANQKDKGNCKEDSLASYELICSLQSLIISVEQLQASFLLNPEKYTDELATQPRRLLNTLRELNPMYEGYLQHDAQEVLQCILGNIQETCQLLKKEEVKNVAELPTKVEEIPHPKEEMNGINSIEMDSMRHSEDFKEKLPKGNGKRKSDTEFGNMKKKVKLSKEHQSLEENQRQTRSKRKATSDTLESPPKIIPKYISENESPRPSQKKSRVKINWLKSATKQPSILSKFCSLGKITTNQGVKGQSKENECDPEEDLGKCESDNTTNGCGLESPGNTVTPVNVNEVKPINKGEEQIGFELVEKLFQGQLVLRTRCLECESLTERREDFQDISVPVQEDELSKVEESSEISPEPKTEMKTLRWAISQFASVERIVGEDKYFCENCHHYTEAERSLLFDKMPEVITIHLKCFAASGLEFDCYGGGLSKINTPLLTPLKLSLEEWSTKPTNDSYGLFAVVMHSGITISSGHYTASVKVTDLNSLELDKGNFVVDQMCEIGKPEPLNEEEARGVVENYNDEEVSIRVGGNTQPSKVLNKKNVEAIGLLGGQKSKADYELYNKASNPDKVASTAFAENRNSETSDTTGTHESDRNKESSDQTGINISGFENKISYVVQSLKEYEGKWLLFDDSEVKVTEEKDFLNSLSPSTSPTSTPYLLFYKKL
# T2 sequence (Q8TAF3 whole entry): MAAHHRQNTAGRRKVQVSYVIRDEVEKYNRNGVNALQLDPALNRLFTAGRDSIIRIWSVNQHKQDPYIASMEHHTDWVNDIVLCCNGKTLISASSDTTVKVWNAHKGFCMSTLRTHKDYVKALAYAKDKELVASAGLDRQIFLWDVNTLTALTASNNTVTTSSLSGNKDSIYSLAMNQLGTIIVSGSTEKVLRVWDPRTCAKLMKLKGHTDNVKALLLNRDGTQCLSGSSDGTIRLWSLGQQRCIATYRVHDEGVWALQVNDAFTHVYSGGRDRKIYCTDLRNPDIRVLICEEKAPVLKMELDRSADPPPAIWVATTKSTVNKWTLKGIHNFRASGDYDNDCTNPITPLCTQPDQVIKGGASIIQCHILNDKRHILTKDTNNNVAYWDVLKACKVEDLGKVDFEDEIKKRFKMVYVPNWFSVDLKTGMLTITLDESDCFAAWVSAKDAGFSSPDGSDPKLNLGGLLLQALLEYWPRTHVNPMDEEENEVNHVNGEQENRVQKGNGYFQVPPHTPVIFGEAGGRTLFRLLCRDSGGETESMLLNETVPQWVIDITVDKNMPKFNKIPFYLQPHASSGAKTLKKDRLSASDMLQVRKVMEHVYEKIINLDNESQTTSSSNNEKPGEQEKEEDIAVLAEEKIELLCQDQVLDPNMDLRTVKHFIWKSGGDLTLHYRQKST
# USP46/UAF1 = USP46/UAF1 (Homo sapiens, UniProt P62068); test: K63-linked diubiquitin cleavage assay, USP46/UAF1; type: biochemical; conditions: for IC50 USP46/UAF1: K63-linked diubiquitin substrate, NI = no significant inhibition at 114 μM
# Chain of USP46/UAF1 (P62068 whole entry): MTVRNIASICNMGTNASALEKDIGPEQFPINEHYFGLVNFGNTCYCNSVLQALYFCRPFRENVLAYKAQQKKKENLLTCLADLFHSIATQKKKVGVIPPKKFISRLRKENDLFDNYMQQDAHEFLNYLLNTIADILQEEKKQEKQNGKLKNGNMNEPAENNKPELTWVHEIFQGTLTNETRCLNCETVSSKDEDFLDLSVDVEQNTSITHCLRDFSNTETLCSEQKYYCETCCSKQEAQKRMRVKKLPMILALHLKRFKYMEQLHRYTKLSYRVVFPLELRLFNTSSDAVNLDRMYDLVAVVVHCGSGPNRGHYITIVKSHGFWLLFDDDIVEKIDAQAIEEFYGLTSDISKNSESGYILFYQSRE
# Chain of USP46/UAF1 (Q8TAF3 whole entry partner): as the sequence (Q8TAF3 whole entry) above
# USP8 = target: T3, USP8 (Homo sapiens, UniProt P40818); test: K63-linked diubiquitin cleavage assay, USP8; conditions: for IC50 USP8: K63-linked diubiquitin substrate, NI = no significant inhibition at 114 μM
# T3 sequence (P40818 1-1118): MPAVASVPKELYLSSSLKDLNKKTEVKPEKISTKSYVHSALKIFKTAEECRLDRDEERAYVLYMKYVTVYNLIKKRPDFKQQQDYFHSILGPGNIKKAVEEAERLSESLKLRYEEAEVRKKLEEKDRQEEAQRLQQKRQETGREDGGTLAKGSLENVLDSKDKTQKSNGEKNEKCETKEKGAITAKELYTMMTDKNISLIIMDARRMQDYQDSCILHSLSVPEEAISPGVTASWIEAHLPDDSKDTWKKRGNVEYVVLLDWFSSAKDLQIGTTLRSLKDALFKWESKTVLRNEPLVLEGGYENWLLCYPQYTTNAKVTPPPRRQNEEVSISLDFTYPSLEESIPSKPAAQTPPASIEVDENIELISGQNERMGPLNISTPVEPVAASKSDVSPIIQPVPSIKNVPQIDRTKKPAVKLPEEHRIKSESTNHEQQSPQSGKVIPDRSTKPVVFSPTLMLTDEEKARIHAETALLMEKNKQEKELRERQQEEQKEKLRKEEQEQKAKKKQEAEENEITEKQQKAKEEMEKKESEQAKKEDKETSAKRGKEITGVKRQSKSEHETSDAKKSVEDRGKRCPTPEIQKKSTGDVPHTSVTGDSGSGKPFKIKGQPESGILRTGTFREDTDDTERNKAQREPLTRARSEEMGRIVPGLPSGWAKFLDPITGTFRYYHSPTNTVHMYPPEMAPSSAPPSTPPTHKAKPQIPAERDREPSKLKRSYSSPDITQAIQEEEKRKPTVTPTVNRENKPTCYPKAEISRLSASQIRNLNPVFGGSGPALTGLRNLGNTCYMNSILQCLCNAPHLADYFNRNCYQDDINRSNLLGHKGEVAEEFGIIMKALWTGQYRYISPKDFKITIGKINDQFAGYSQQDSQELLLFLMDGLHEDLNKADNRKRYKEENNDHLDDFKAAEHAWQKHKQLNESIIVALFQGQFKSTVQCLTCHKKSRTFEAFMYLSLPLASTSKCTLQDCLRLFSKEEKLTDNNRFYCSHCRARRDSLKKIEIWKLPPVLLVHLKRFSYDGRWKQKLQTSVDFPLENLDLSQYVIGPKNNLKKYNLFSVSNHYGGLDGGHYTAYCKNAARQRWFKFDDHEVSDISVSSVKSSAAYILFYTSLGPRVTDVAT
# USP1/UAF1 [2] = target: T4, USP1/UAF1 (Homo sapiens, UniProt O94782); test: gel-based K63-linked diubiquitin cleavage assay, USP1/UAF1; type: biochemical; conditions: IC50 USP1/UAF1, K63-linked diubiquitin substrate; NI = no significant inhibition at highest inhibitor concentration of 114 μM
# T4 sequence (O94782 whole entry): as the sequence (O94782 whole entry) above
# T4 sequence (Q8TAF3 whole entry, further chain): as the sequence (Q8TAF3 whole entry) above
# USP1/UAF1 complex = USP1/UAF1 complex (Homo sapiens, UniProt O94782+Q8TAF3); test: native gel electrophoresis of USP1/UAF1 complex; conditions: incubation with inhibitor up to 10 × IC50
# Chain of USP1/UAF1 complex (O94782 whole entry): as the sequence (O94782 whole entry) above
# Chain of USP1/UAF1 complex (Q8TAF3 whole entry): as the sequence (Q8TAF3 whole entry) above
# Ub-H2A in HEK293T cells = test: histone H2A monoubiquitination in cells; type: cell-based, human; conditions: in the presence or absence of cisplatin
# [3] = system: Ub-FANCD2 in HEK293T cells; test: Western blot of Ub-FANCD2 level in cells; type: cell-based, human
# USP1/UAF1 [4] = target: T4, USP1/UAF1; test: steady-state kinetics; type: biochemical
# USP1/UAF1 [5] = target: T2, USP1/UAF1; test: steady-state kinetics; type: biochemical; conditions: Lineweaver-Burk plots, K63-linked di-Ub substrate
# in vitro = conditions: human
# Ub-PCNA in HEK293T cells = test: Western blot of Ub-PCNA level in cells; type: cell-based, human
IC50 (caspase-3) [µM],reversibility of inhibition (USP1/UAF1 [1]),IC50 USP46/UAF1 (USP46/UAF1),IC50 (USP8) [µM],IC50 (USP1/UAF1 [2]) [µM],Structure (SMILES),IC50 (USP46/UAF1) [µM],dissociation of the USP1/UAF1 complex (USP1/UAF1 complex),IC50 USP8 (USP8),effect on level of Ub-H2A (Ub-H2A in HEK293T cells),"Ub-FANCD2 level, single agent [3]",Ki (USP1/UAF1 [4]) [µM],inhibition mechanism (USP1/UAF1 [5]),EC50 at 48 h (in vitro) [µM],"monoubiquitination of PCNA, single agent (Ub-PCNA in HEK293T cells)"
> 250,largely reversible inhibitors,did not inhibit,> 114,7 ± 1,"OCCN1CCN(CCC=C2c3ccccc3Sc3ccc(C(F)(F)F)cc32)CC1 [Flupenthixol, flupenthixol]",,,,,,,,,
> 250,largely reversible inhibitors,did not inhibit,,,"O=c1[nH]c2ccccc2n1C1CCN(CCCC(c2ccc(F)cc2)c2ccc(F)cc2)CC1 [Pimozide, pimozide]",,no dissociation,No inhibition,no effect,increase in Ub-FANCD2 level,0.5,noncompetitively; also recorded: noncompetitive inhibition mechanism,21,significant increase
> 250,largely reversible inhibitors,did not inhibit,,≤ 8,"CN1CCN(CCCN2c3ccccc3Sc3ccc(C(F)(F)F)cc32)CC1 [Trifluoperazine, trifluoperazine]",,,,,,,,,

Structure (SMILES),IC50 (caspase-3) [µM],reversibility of inhibition (USP1/UAF1 [1]),IC50 USP46/UAF1 (USP46/UAF1),IC50 (USP8) [µM],IC50 (USP1/UAF1 [2]) [µM],IC50 (USP46/UAF1) [µM],dissociation of the USP1/UAF1 complex (USP1/UAF1 complex),IC50 USP8 (USP8),effect on level of Ub-H2A (Ub-H2A in HEK293T cells),"Ub-FANCD2 level, single agent [3]",Ki (USP1/UAF1 [4]) [µM],inhibition mechanism (USP1/UAF1 [5]),EC50 at 48 h (in vitro) [µM],"monoubiquitination of PCNA, single agent (Ub-PCNA in HEK293T cells)"
CC(C)(Sc1ccc(CCN(CCCCC2CCCCC2)C(=O)NC2CCCCC2)cc1)C(=O)O [GW7647],> 250,largely reversible inhibitors,,,,12 ± 1,no dissociation,did not inhibit,no effect,increase in Ub-FANCD2 level,0.7,noncompetitively; also recorded: noncompetitive inhibition mechanism,26,significant increase
